Publication PMC3834340, “X-Ray Crystal Structure of the Ancestral 3-Ketosteroid Receptor–Progesterone–Mifepristone Complex Shows Mifepristone Bound at the Coactivator Binding Interface” (PLoS ONE, 2013)

Experiments:
[1] = system: T1, ancestral 3-ketosteroid receptor (ancSR2); test: X-ray crystal structure at […] Å (ternary complex, surface sites); the EC50 is from a separate CHO-K1 luciferase reporter assay and is not assigned to these sites; type: cell-based, synthetic construct
T1 construct: ancSR2 LBD, residues 2 through 248 modeled

[2] = system: T1, ancestral 3-ketosteroid receptor (ancSR2); test: X-ray crystal structure at […] Å; the EC50 is from a Gal4-DBD–LBD luciferase reporter assay in CHO-K1 cells; type: cell-based, synthetic construct

| Compound | EC50 [1] | EC50 [2] |
| --- | --- | --- |
| CC#C[C@]1(O)CC[C@H]2[C@@H]3CCC4=CC(=O)CCC4=C3[C@@H](c3ccc(N(C)C)cc3)C[C@@]21C [mifepristone] | 56 ± 1.2 nM |  |
| CC(=O)[C@H]1CC[C@H]2[C@@H]3CCC4=CC(=O)CC[C@]4(C)[C@H]3CC[C@]12C [progesterone] |  | 0.078 ± 0.0017 nM |
